Data reported in article PMC3146558 (Cellular and molecular neurobiology, 2011).
Structures can show the parent of a compound that is named as a salt. Where two headings read alike, the source gives them in different places.

Columns and labels:
[1] = test system: morphine induced cAMP overshoot; test: Inhibition of morphine-induced cAMP overshoot, qHTS of LOPAC library; type: cell-based
[2] = test system: HEK-MOR cells; test: Assay performance in 1536-well plate format; type: cell-based; conditions: mean ± SD from 288 wells

| Compound | IC50 ([1]; 18 h, read-out: Potency) | other results |
| --- | --- | --- |
| CCCN(CCC)CCc1cccc2c1CC(=O)N2 [Ropinirole hydrochloride] | 18400 nM |  |
| CCCCCCCCCCCCCCCCCC(=O)NCC(COP(=O)([O-])OCC[N+](C)(C)C)OCC (racemic) [rac-2-Ethoxy-3-octadecanamido-1-propylphosphocholine] | 18400 nM |  |
| C=CCN1CC[C@]23CCCC[C@H]2[C@H]1Cc1ccc(O)cc13 [Levallorphan tartrate] | 330 nM | IC50 ([1]; read-out: IC50): 320 nM |
| C[C@@]12C(=O)OC(=O)[C@]1(C)[C@H]1CC[C@@H]2O1 [Cantharidin] | 13000 nM |  |
| Oc1ccc2c3c1O[C@H]1c4[nH]c5ccccc5c4C[C@@]4(O)[C@@H](C2)N(CC2CC2)CC[C@]314 [Naltrindole hydrochloride] | 820 nM | IC50 ([1]; read-out: IC50): 810 nM |
| O=C1CC[C@@]2(O)[C@H]3Cc4ccc(O)c5c4[C@@]2(CCN3CC2CC2)[C@H]1O5 [Naltrexone hydrochloride] | 120 nM | IC50 ([1]; read-out: IC50): 110 nM |
| CN1CC[C@]23c4c5ccc(O)c4O[C@H]2[C@@H](O)C=C[C@H]3[C@H]1C5 [Morphine, morphine sulfate pentahydrate] |  | ratio (665nm/620nm), morphine treatment ([2]; NKH 477 10 nM): 1.63 ± 0.13; ratio (665nm/620nm), morphine treatment ([2]; NKH 477 25 nM): 1.08 ± 0.05; ratio (665nm/620nm), morphine treatment ([2]; NKH 477 50 nM): 0.88 ± 0.04 |
| CC1(C(=O)O)C2CCC(O2)C1(C)C(=O)O (centres unmarked) [Cantharidic Acid] | 14600 nM |  |
| Oc1ccc2c3c1O[C@H]1c4oc5ccccc5c4C[C@@]4(O)[C@@H](C2)N(CC2CC2)CC[C@]314 [Naltriben methanesulfonate] | 2310 nM |  |
| CCC(=O)c1ccc2c(c1)N(CCCN(C)C)c1ccccc1S2 [Propionylpromazine hydrochloride] | 16400 nM |  |
| C=C1C(=O)O[C@H]2[C@H]1CC/C(C)=C/CC[C@@]1(C)O[C@@H]21 [Parthenolide] | 16400 nM |  |
| C=CCN1CC[C@]23c4c5ccc(O)c4O[C@H]2/C(=N/NC(=O)c2ccccc2)CC[C@@]3(O)[C@H]1C5 [Naloxone benzoylhydrazone] | 410 nM |  |
